Earlier results on one substance are cited in patent US9226893B2, “Method for storing silica-based material, package produced with the method and use of package for packaging of silica-based products” (DelSiTech Oy, priority 2006, dated 2016).

“lysozyme: Lysozyme released from sol-gel derived silica gel (literature, Wilson et al.)”: the “activity of released lysozyme” value (gel let to dry and age simultaneously, within few weeks) is on record as “substantially reduced”. Moreover, the “amount of biologically active lysozyme relative to total amount of released lysozyme” value (silica gel which had not dried, with or without protective agent) is roughly 100%.
